Entries after “also recorded” stand apart in the source; their conditions may differ. Where two headings read alike, the source gives them in different places.
Key:
[1] = parameters: method as in PMID 17575528, PMID 21132072; settings: no enteric coating required; cited from earlier work
[2] = parameters: method as in PMID 25707624; settings: 20 mg once daily after ≥10-hour fast, cited from earlier work
[3] = Phase 1 randomized open-label crossover food-effect pharmacokinetic study, plasma vonoprazan by LC-MS/MS; assay type: in vivo, healthy Caucasian male and female subjects (human); settings: for AUC / Cmax / tmax: po, 20 mg; for tmax: read-out: tmax, median (min, max)
Protocol: This was a randomized, open‐label, 2×2 crossover, phase 1 study stratified by gender in healthy Caucasian male and female subjects. The study was conducted at a single site in Northern Ireland (MDS Pharma Services, Belfast, Northern Ireland). The study was approved by an independent ethics committee (Edinburgh Independent Ethics Committee, Edinburgh, Scotland). Written informed consent was obtained from all subjects before study initiation.
The enrolled study population included 12 men and 14 women aged 18 to 45 years, of Caucasian ethnicity, considered eligible on the basis of study inclusion and exclusion criteria. To be eligible, subjects must have been in good health and have had clinical laboratory evaluations (including clinical chemistry, hematology, and urinalysis) within the reference range for the testing laboratory, or only minor deviations that were deemed by the investigator to be clinically nonsignificant. Additional inclusion criteria included a body mass index between 18 and 30 kg/m^2 and a willingness to provide written informed consent before any screening procedures; abstention from caffeine, alcohol, and strenuous exercise from 72 hours before dosing until the follow‐up call/visit; and use of adequate contraception from screening, throughout the study, and for 30 days following the last dose of study medication (applicable to female subjects of childbearing potential who were sexually active) or for 12 weeks after the follow‐up visit (applicable to male subjects with female partners, both of whom were required to use contraception). In addition to caffeine and alcohol, subjects who had received the following were excluded from participation: nicotine products 6 weeks before the first dose of study medication; antibiotics within 28 days prior to initial screening; prescription medication or St. John's wort, ginseng, kava, ginkgo biloba, melatonin, herbal or homeopathic preparations, or other nutriceuticals within 28 days before the first dose; over‐the‐counter medication including salicylates (except when approved on a case‐by‐case basis) or vitamin supplements within 14 days before the first dose; and grapefruit or grapefruit products, Seville oranges (sour) or products, or poppy seeds within 7 days before the first dose.
Subjects were randomized to either the fed/fasted state or fasted/fed state sequence, with randomization stratified by sex. Eligible subjects received a single 20‐mg dose of vonoprazan (given as two 10‐mg tablets) either following an overnight fast or 30 minutes after a breakfast (≈900 calories, with 62% of the calories from fat, 23% from carbohydrate, and 14% from protein).
After a 5‐day washout period, subjects received a second 20‐mg dose of vonoprazan in the alternative fed/fasted state, and the identical process was performed. During dosing in the fasted state, subjects fasted for 10 hours before receiving the study drug. During dosing in the fed state, subjects fasted for 10 hours and then consumed the breakfast, which was started 30 minutes before dosing and eaten in ≤30 minutes. Vonoprazan was taken with 240 mL of water, and subjects refrained from eating for 4 hours after dosing. Water (200 mL) was given to all subjects at 2 and 4 hours after dosing. All administrations of vonoprazan were taken under supervision.
Plasma concentrations of vonoprazan were determined using a liquid chromatography–tandem mass spectrometry assay with a validated concentration range of 0.1 to 100 ng/mL. A total of 864 samples were analyzed in 13 reported batches. The bioanalytical method utilized protein precipitation and extraction of plasma samples with acetonitrile‐formic acid (100:0.2, v/v) before analysis by liquid chromatography–tandem mass spectrometry. […]

[4] = cited from earlier work
[5] = Safety/tolerability in the food-effect study (adverse events, vital signs, ECG, laboratory tests); settings: for Incidence of AEs: single 20-mg dose, 24 subjects
Text: Safety variables included physical examination findings; vital signs; electrocardiograms; clinical laboratory evaluations including hematology, chemistry, and urinalysis; and treatment‐emergent adverse events (AEs).
The safety analysis set comprised all enrolled subjects who received at least 1 dose of vonoprazan and was used for safety and baseline demographics summaries.

[6] = parameters: method as in PMID 26369775; settings: single 20 mg, cited from earlier work
[7] = parameters: method as in PMID 25707624, PMID 28198590, PMID 26193978, PMID 31990424; settings: 212 healthy volunteers, daily doses up to 40 mg for up to 7 days; cited from earlier work
[8] = system: cytochrome P450 (CYP) 3A4; parameters: method as in PMID 26369775, PMID 29383028, PMID 27414183; settings: lesser extent by CYP2B6, CYP2C19, CYP2D6; cited from earlier work
gastric acid secretion = system: gastric acid secretion; parameters: method as in PMID 26111126; settings: single doses ≥20 mg, clinical studies; cited from earlier work
[9] = parameters: method as in PMID 25707624; settings: 20 mg once daily after ≥10-hour fast, cited from earlier work; remark: listed apart in the source
[10] = single 20-mg doses, fed and fasted
[11] = 12 healthy Japanese adult men, unchanged vonoprazan

CNCc1cc(-c2ccccc2F)n(S(=O)(=O)c2cccnc2)c1.O=C(O)/C=C/C(=O)O [vonoprazan, 1‐[5‐(2‐fluorophenyl)‐1‐(pyridin‐3‐ylsulfonyl)‐1H‐pyrrol‐3‐yl]‐N‐methylmethanamine monofumarate]
acid stability [1]: acid stable
tmax ([2]; day 1, Japanese study): 1.5 h
tmax ([2]; day 7, Japanese study): 1.5 h
AUC ([3]; both sexes, human, plasma, single 20-mg oral dose, fasted, N = 24, read-out: AUC0‐24, least-squares mean): 154 ng·h/mL
AUC ([3]; both sexes, human, plasma, single 20-mg oral dose, fasted, N = 24, read-out: AUC0‐∞, least-squares mean): 171 ng·h/mL
Cmax ([3]; both sexes, human, plasma, single 20-mg oral dose, fasted, N = 24, read-out: Cmax, least-squares mean): 17.3 ng/mL
AUC ([3]; both sexes, human, plasma, single 20-mg oral dose, fasted, n = 24, plasma, read-out: AUC0‐24, mean (SD)): 161 ng·h/mL
AUC ([3]; both sexes, human, plasma, single 20-mg oral dose, fasted, n = 24, plasma, read-out: AUC0‐∞, mean (SD)): 179 ng·h/mL
Cmax ([3]; both sexes, human, plasma, single 20-mg oral dose, fasted, n = 24, plasma, read-out: Cmax, mean (SD)): 18.2 ng/mL
tmax ([3]; both sexes, human, plasma, single 20-mg oral dose, fasted, n = 24): 2 h
Cmax ([3]; both sexes, human, plasma, single 20-mg oral dose, fed (high-fat breakfast), n = 24, plasma, read-out: Cmax, mean (SD)): 18.9 ng/mL
AUC ([3]; both sexes, human, plasma, single 20-mg oral dose, fed, N = 24, read-out: AUC0‐24, least-squares mean): 174 ng·h/mL
AUC ([3]; both sexes, human, plasma, single 20-mg oral dose, fed, N = 24, read-out: AUC0‐∞, least-squares mean): 196 ng·h/mL
Cmax ([3]; both sexes, human, plasma, single 20-mg oral dose, fed, N = 24, read-out: Cmax, least-squares mean): 18.2 ng/mL
AUC ([3]; both sexes, human, plasma, single 20-mg oral dose, fed, n = 24, plasma, read-out: AUC0‐24, mean (SD)): 182 ng·h/mL
AUC ([3]; both sexes, human, plasma, single 20-mg oral dose, fed, n = 24, plasma, read-out: AUC0‐∞, mean (SD)): 206 ng·h/mL
tmax ([3]; both sexes, human, plasma, single 20-mg oral dose, fed, n = 24): 4 h
half-life ([3]; both sexes, human, plasma, single 20-mg oral dose, fed, n = 24, read-out: t1/2 (terminal elimination half-life), mean (SD) (converted)): 6.9 h
Effect of food on exposure ([3]; single 20-mg dose, fed vs fasted, CI within 80% to 125%): not meaningfully affected by food; also recorded: not materially affected by food
AUC0‐24, fed/fasted ratio of geometric (least-squares) means ([3]; single 20-mg oral dose, N = 24): 1.13
AUC0‐∞, fed/fasted ratio of geometric (least-squares) means ([3]; single 20-mg oral dose, N = 24): 1.15
Cmax, fed/fasted ratio of geometric (least-squares) means ([3]; single 20-mg oral dose, N = 24): 1.05
t1/2 (terminal elimination half-life), mean (SD) ([3]; single 20-mg oral dose, fasted, n = 24): 6.9 (1.45) h
influence of CYP2C19 polymorphisms on pharmacokinetics ([4]; Japanese repeated-dose study and earlier phase 1 study): not influenced by CYP2C19 polymorphisms
accumulation in plasma after multiple doses ([4]; doses from 10 to 40 mg, days 1 and 7): little to no accumulation
median time of peak plasma concentrations (tmax) ([4]; oral, once-daily dosing): ≤ 2 h
Incidence of AEs ([5]; fasted state): 12.5%
Incidence of AEs ([5]; fed state): 8.3%
Tolerability ([5]; single 20-mg doses given on 2 occasions, healthy subjects): safe and well tolerated
Changes in liver function tests [5, 10]: no obvious treatment‐emergent changes
Changes in vital signs, 12-lead electrocardiograms, laboratory safety tests [5, 10]: no clinically important changes
Serious AEs and deaths during the study [5, 10]: No serious AEs and no deaths
Severity of reported AEs [5, 10]: mild
Number of adverse events ([5]; whole study, four subjects affected): 6
AUC0‐48, fed/fasted ratio [6, 11]: 1.08
Cmax, fed/fasted ratio [6, 11]: 1.09
AUC0‐∞ ([6]; fasted state, Japanese men): 225.3 ng·h/mL
Cmax ([6]; fasted state, Japanese men): 24.3 ng/mL
median tmax ([6]; fasted state, Japanese men): 1.5 h
t1/2 ([6]; fasted state, Japanese men): 7.7 h
median tmax ([6]; fed state, Japanese men): 3.0 h
safety signals [7]: no safety signals
metabolizing enzymes [8]: primarily metabolized by cytochrome P450 (CYP) 3A4
Tolerability (gastric acid secretion): well tolerated
duration of action (gastric acid secretion): 24 h
onset of action (gastric acid secretion): < 4 h
tmax ([9]; day 1, UK study): 1.5 h
tmax ([9]; day 7, UK study): 1.1 h

From article PMC9291755, “The Effect of Food on the Pharmacokinetics of the Potassium‐Competitive Acid Blocker Vonoprazan” (Clinical Pharmacology in Drug Development, 2021)
